Experimental data from US7322965B2, “Infection-resistant medical devices” (priority 2002, dated 2008).
In brackets after ≈: the same amount, converted by molar mass. Entries after “also recorded” stand apart in the source; their conditions may differ. Where two headings read alike, the source gives them in different places. Marks after values point to notes of the source that are not given here.

Assays:
S. aureus UC-20206 = experiment: Microtiter-plate adherence assay on polystyrene; format: cell-based; conditions: for Adherence Mean OD550: S. aureus UC-20206, 18 h
Experimental: (§1) Briefly, the inoculum was established by the direct colony suspension method using the Prompt™ Inoculation System (Becton Dickinson, Sparks, Md.). The bacteria suspension, which was equal to the turbidity of a 0.5 McFarland standard, was diluted in TSB to a concentration of 1×10^6 colony forming units per ml (CFU/mL). One hundred microliters of the cell suspension was added to flat-bottom polystyrene wells (Corning Costar, Corning, N.Y.) containing 100 μl of TSB, with and without drug. The final inoculum concentration per well was approximately 5×10^5 CFU/mL. The plates were incubated at 37° C. under static conditions in air. At 18 hours (h) post-infection, the optical density of bacterial growth was measured at a wavelength of 595 nm in a microtiter plate reader (Vmax; Molecular Devices, Sunnyvale, Calif.). […] Adherent “sessile” cells then were fixed with 3.7% (v/v) formaldehyde/2% (w/v) sodium acetate and stained with 0.1% (w/v) crystal violet. Excess stain was rinsed off with deionized water and the plates were air-dried for 4 h. The optical density of bacterial adherence was determined at a wavelength of 550 nm. Preliminary studies were performed to determine the optimal wavelengths for measuring growth turbidity and stained adherent cells (data not shown). To compensate for background absorbance, optical density readings from wells treated with sterile medium, fixative and stain as described above were averaged and then subtracted from all test and control wells. Relative inhibition of adherence or growth was expressed by the following equation: (OD of control well−OD of treated well/OD of control well)×100, where OD is the mean optical density of six replicate wells from two separate experiments (three replicates per experiment). Control was defined as infected, drug-free cultures.
(§2) The primary efficacy variable in this study was the measurement of adherent bacterial cells to polystyrene after 18 h of growth. To determine whether statistically significant differences existed between treatment groups (MIC, ½ MIC, and ¼ MIC) compared with the infected-nontreated controls, the Kruskal-Wallis one-way analysis of variance (ANOVA) was applied for each clinical strain. Statistical significance was defined as p-values ≦0.05. An asterisk (*) was placed by all test values less than or equal to the specified significance level.

S. aureus UC-20205 = experiment: Microtiter-plate adherence assay on polystyrene; format: cell-based; conditions: for Adherence Mean OD550: S. aureus UC-20205, 18 h
Experimental: as §1, §2

S. epidermidis UC-20208 [1] = experiment: Microtiter-plate adherence assay on polystyrene; format: cell-based; conditions: for Adherence Mean OD550: S. epidermidis UC-20208, 18 h
Experimental: as §1, §2

S. epidermidis RP62A [2] = experiment: Determination of minimum inhibitory concentration (microdilution); format: cell-based; conditions: Staphylococcus epidermidis; S. epidermidis RP62A; 18 h; read-out: MIC (minimum inhibitory concentration)
[3] = system: S. epidermidis isolates (UC-20207, UC-20208, and RP62A); experiment: Time course adherence assay, summary over three S. epidermidis isolates; format: cell-based; conditions: for mean inhibitory effects on staphylococcal adherence: subtherapeutic (one-half MIC)
Experimental: (§3) Drug effects on bacterial adherence were measured 18 hours after treatment initiation using a quantitative spectrophotometric assay.
(§4) Relative inhibition of adherence was expressed by the following equation: (OD of control well−OD of treated well/OD of control well)×100, where OD is the mean optical density of six replicate wells from two separate experiments (three replicates per experiment). Control was defined as infected, drug-free cultures.
(§5) The primary efficacy variable in this study was the measurement of adherent bacteria to polystyrene surfaces after 18 hours to 24 hours of growth. To determine whether statistically significant differences existed between treatments (4×MIC, 2×MIC, MIC, and ½ MIC) compared with the infected-nontreated controls, multiple comparisons according to Dunnett's test (Montgomery, Design and Analysis of Experiments (1991)) were applied for each clinical strain. Differences were considered statistically significant when p<0.05.

S. epidermidis UC-20208 [4] = experiment: Determination of minimum inhibitory concentration (microdilution); format: cell-based; conditions: Staphylococcus epidermidis, UC20208; S. epidermidis UC-20208; 18 h; read-out: MIC (minimum inhibitory concentration)
[5] = system: S. aureus and S. epidermidis strains; experiment: Microtiter-plate adherence assay, summary over all strains evaluated; format: cell-based, staphylococci
Experimental: as §1, §2

S. hominis SP2 = experiment: Microtiter-plate adherence assay on polystyrene, nonadherent reference strain; format: cell-based; conditions: data not shown
Experimental: Briefly, the inoculum was established by the direct colony suspension method using the Prompt™ Inoculation System (Becton Dickinson, Sparks, Md.). The bacteria suspension, which was equal to the turbidity of a 0.5 McFarland standard, was diluted in TSB to a concentration of 1×10^6 colony forming units per ml (CFU/mL). One hundred microliters of the cell suspension was added to flat-bottom polystyrene wells (Corning Costar, Corning, N.Y.) containing 100 μl of TSB, with and without drug. The final inoculum concentration per well was approximately 5×10^5 CFU/mL. The plates were incubated at 37° C. under static conditions in air. At 18 hours (h) post-infection, the optical density of bacterial growth was measured at a wavelength of 595 nm in a microtiter plate reader (Vmax; Molecular Devices, Sunnyvale, Calif.). […] The optical density of bacterial adherence was determined at a wavelength of 550 nm. […] To compensate for background absorbance, optical density readings from wells treated with sterile medium, fixative and stain as described above were averaged and then subtracted from all test and control wells. […]
Reliability of the microtiter-plate adherence assay was assessed with the reference strains S. hominis SP2 (nonadherent) and S. epidermidis RP62A (strongly adherent). The median optical density readings for SP2 and RP62A were 0.059±0.004 and 2.789±0.266, respectively. […]

S. epidermidis RP62A [6] = experiment: Time course adherence assay (prophylactic and delayed treatment); format: cell-based; conditions: for inhibition at 1 µg/mL / inhibition at 2 µg/mL / inhibition at 4 µg/mL / inhibition at 8 µg/mL: Staphylococcus epidermidis, read-out: Percent inhibition of bacterial adherence relative to controls
Experimental: as §3, §4, §5

S. hominis SP-2 = experiment: Determination of minimum inhibitory concentration (microdilution); format: cell-based; conditions: Staphylococcus hominis, SP2; S. hominis SP-2; 18 h; read-out: MIC (minimum inhibitory concentration)
[7] = Staphylococcus aureus, UC20206, 18 h, read-out: Adherence % Inhibition
[8] = Staphylococcus aureus, UC20205, 18 h, read-out: Adherence % Inhibition
[9] = Staphylococcus epidermidis, UC20208, 18 h, read-out: Adherence % Inhibition

CC(=O)NC[C@H]1CN(c2ccc(N3CCOCC3)c(F)c2)C(=O)O1 [Linezolid, (S)-N-[[3-[3-fluoro-4-(4-morpholinyl)phenyl]-2-oxo-5-oxazolidinyl]methyl]acetamide]
Adherence Mean OD550 (S. aureus UC-20206; drug 1.0 μg/ml): 0.001 ± 0.002* | Adherence Mean OD550 (S. aureus UC-20206; drug 2.0 μg/ml): 0.002 ± 0.002* | Adherence Mean OD550 (S. aureus UC-20206; drug 4.0 μg/ml): 0.003 ± 0.003* | inhibition at 1 µg/mL (S. aureus UC-20206; [7]): 99.4% | inhibition at 2 µg/mL (S. aureus UC-20206; [7]): 99.3% | inhibition at 4 µg/mL (S. aureus UC-20206; [7]): 98.5% | Adherence Mean OD550 (S. aureus UC-20205; drug 0.5 μg/ml): 0.013 ± 0.007* | Adherence Mean OD550 (S. aureus UC-20205; drug 1.0 μg/ml): 0.005 ± 0.007* | Adherence Mean OD550 (S. aureus UC-20205; drug 2.0 μg/ml): 0.001 ± 0.001* | inhibition at 0.5 µg/mL (S. aureus UC-20205; [8]): 97.6% | inhibition at 1 µg/mL (S. aureus UC-20205; [8]): 99% | inhibition at 2 µg/mL (S. aureus UC-20205; [8]): 99.7% | Adherence Mean OD550 (S. epidermidis UC-20208 [1]; drug 0.5 μg/ml): 1.342 ± 0.791 | Adherence Mean OD550 (S. epidermidis UC-20208 [1]; drug 1.0 μg/ml): 0.001 ± 0.002* | Adherence Mean OD550 (S. epidermidis UC-20208 [1]; drug 2.0 μg/ml (MIC)): 0.000 ± 0.001* | inhibition at 0.5 µg/mL (S. epidermidis UC-20208 [1]; [9]): 26.7% | inhibition at 1 µg/mL (S. epidermidis UC-20208 [1]; [9]): 99.9% | inhibition at 2 µg/mL (S. epidermidis UC-20208 [1]; [9]): 100% | MIC (S. epidermidis RP62A [2]): 2 µg/mL (≈ 5.93 µM) | inhibitory effects on adherence ([3]; 4×MIC, 6-hour delay, mean of three strains): 87.5%±11.7 | mean inhibitory effects on staphylococcal adherence ([3]; 2 h delayed treatment, mean of three strains): 99.1%±1.4 | mean inhibitory effects on staphylococcal adherence ([3]; 4 h delayed treatment, mean of three strains): 63.5%±39.2 | anti-adhesion activity ([3]; therapeutic levels (≧MIC), 2- and 4-hour deferred treatments): potent anti-adhesion activity | MIC (S. epidermidis UC-20208 [4]): 2 µg/mL (≈ 5.93 µM) | effect on bacterial adhesion at subinhibitory concentrations ([5]; concentrations less than the MIC, as low as one-fourth the MIC, five strains): surprisingly effective at preventing bacterial adhesion; also recorded: significant inhibitory effects on cell adhesion in all strains evaluated | preventing adherence to polystyrene ([5]; one-fourth the MIC, five strains): effective in preventing adherence at one-fourth the MIC in all but one strain | percent inhibition of adherence relative to control ([5]; one-half the MIC, all strains evaluated): greater than or equal to 99.0% | promotion of adherence of the nonadherent strain (S. hominis SP2): Neither linezolid nor vancomycin promoted adherence | Mean OD550 (S. epidermidis RP62A [6]; 1.0 μg/ml, treatment 0 h post-infection): 0.000 ± 0.002 | Mean OD550 (S. epidermidis RP62A [6]; 1.0 μg/ml, treatment 2 h post-infection): 0.000 ± 0.000 | Mean OD550 (S. epidermidis RP62A [6]; 1.0 μg/ml, treatment 4 h post-infection): 0.000 ± 0.001 | Mean OD550 (S. epidermidis RP62A [6]; 1.0 μg/ml, treatment 6 h post-infection): 0.274 ± 0.183 | Mean OD550 (S. epidermidis RP62A [6]; 2.0 μg/ml (MIC), treatment 0 h post-infection): 0.004 ± 0.004 | Mean OD550 (S. epidermidis RP62A [6]; 2.0 μg/ml (MIC), treatment 2 h post-infection): 0.001 ± 0.001 | Mean OD550 (S. epidermidis RP62A [6]; 2.0 μg/ml (MIC), treatment 4 h post-infection): 0.003 ± 0.005 | Mean OD550 (S. epidermidis RP62A [6]; 2.0 μg/ml (MIC), treatment 6 h post-infection): 0.083 ± 0.067 | Mean OD550 (S. epidermidis RP62A [6]; 4.0 μg/ml, treatment 0 h post-infection): 0.002 ± 0.002 | Mean OD550 (S. epidermidis RP62A [6]; 4.0 μg/ml, treatment 2 h post-infection): 0.003 ± 0.002 | Mean OD550 (S. epidermidis RP62A [6]; 4.0 μg/ml, treatment 4 h post-infection): 0.002 ± 0.004 | Mean OD550 (S. epidermidis RP62A [6]; 4.0 μg/ml, treatment 6 h post-infection): 0.082 ± 0.051 | Mean OD550 (S. epidermidis RP62A [6]; 8.0 μg/ml, treatment 0 h post-infection): 0.002 ± 0.002 | Mean OD550 (S. epidermidis RP62A [6]; 8.0 μg/ml, treatment 2 h post-infection): 0.003 ± 0.001 | Mean OD550 (S. epidermidis RP62A [6]; 8.0 μg/ml, treatment 4 h post-infection): 0.000 ± 0.001 | Mean OD550 (S. epidermidis RP62A [6]; 8.0 μg/ml, treatment 6 h post-infection): 0.021 ± 0.010 | inhibition at 1 µg/mL (S. epidermidis RP62A [6]; 0 h): 100% | inhibition at 2 µg/mL (S. epidermidis RP62A [6]; 0 h): 99.8% | inhibition at 4 µg/mL (S. epidermidis RP62A [6]; 0 h): 99.9% | inhibition at 8 µg/mL (S. epidermidis RP62A [6]; 0 h): 99.9% | inhibition at 1 µg/mL (S. epidermidis RP62A [6]; 2 h): 100% | inhibition at 2 µg/mL (S. epidermidis RP62A [6]; 2 h): 99.9% | inhibition at 4 µg/mL (S. epidermidis RP62A [6]; 2 h): 99.9% | inhibition at 8 µg/mL (S. epidermidis RP62A [6]; 2 h): 99.8% | inhibition at 1 µg/mL (S. epidermidis RP62A [6]; 4 h): 100% | inhibition at 2 µg/mL (S. epidermidis RP62A [6]; 4 h): 99.8% | inhibition at 4 µg/mL (S. epidermidis RP62A [6]; 4 h): 99.8% | inhibition at 8 µg/mL (S. epidermidis RP62A [6]; 4 h): 100% | inhibition at 1 µg/mL (S. epidermidis RP62A [6]; 6 h): 78.4% | inhibition at 2 µg/mL (S. epidermidis RP62A [6]; 6 h): 93.4% | inhibition at 4 µg/mL (S. epidermidis RP62A [6]; 6 h): 93.5% | inhibition at 8 µg/mL (S. epidermidis RP62A [6]; 6 h): 98.4% | MIC (S. hominis SP-2): 2 µg/mL (≈ 5.93 µM)
